The text below walks through data of US20050113419A1, “Therapeutic compounds for treating dyslipidemic conditions” (priority 2003, published 2005).

The target in one test is T1, human LXRα (Homo sapiens, UniProt Q13133).
T1 construct: made in house; host or cells: E. coli (pGEX-KT vector)
T1 sequence (Q13133 164-447): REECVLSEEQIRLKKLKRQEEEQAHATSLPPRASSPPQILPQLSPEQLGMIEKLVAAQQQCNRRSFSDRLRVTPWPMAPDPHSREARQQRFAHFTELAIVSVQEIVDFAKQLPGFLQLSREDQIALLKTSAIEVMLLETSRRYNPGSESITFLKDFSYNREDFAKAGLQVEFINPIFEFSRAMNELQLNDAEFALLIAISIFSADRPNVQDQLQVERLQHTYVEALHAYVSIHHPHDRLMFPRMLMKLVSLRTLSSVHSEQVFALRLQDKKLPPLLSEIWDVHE
The experiment in a line: Radioligand competition binding scintillation proximity assay, LXRα. The source says:
Radioligand Competition Binding Scintillation Proximity Assays

In another test the test system is Caco-2 cells. The experiment in a line: Cholesterol efflux from cultured human Caco-2 cells. It is filed as cell-based. Particulars: 10 μg/ml apoA-I, 24 hours, mean of quadruplicate incubations. The procedure: Caco-2 cells, which are of human origin, were obtained from ATCC and grown in Opti-MEM (Gibco #51985-034) containing 10% FCS, non-essential amino acids (Gibco #11140-050), and vitamins (Gibco # 11120-052). Caco-2 cells were plated at 100,000 cells/well in 48-well plates. After four days the cells had reached confluence, and were then labeled with ^3H-cholesterol by incubation for 24 hours in fresh growth media containing ^3H-cholesterol (10 μCi/mi). Following labeling with ^3H-cholesterol, cells were washed and incubated an additional 24 hours in serum-free media containing 1 mg/ml BSA, to allow for equilibration of ^3H-cholesterol with intracellular cholesterol. Cholesterol efflux was initiated by adding 10 μg/ml apoA-I, with or without compound, in serum-free medium. Compounds were added to cell culture medium from DMSO solutions, and control cells received an equivalent amount of DMSO, never exceeding 0.1%. After 24 hours, media were harvested and cells dissolved in 0.1 M NaOH. Media were briefly centrifuged to remove non-adherent cells, and then aliquots of both the supernatants and the dissolved cells were subjected to liquid scintillation spectrometry to determine radioactivity. Cholesterol efflux is expressed as a percentage, calculated as (^3H-cholesterol in riedium/(^3H-cholesterol in medium+^3H-cholesterol in cells))×100.

The term Kd denotes the constant that tells how readily two partners part at equilibrium.

Take `CCCc1c(OCCCSc2ccc(CC(=O)O)cc2Cl)ccc2c(C(F)(F)F)noc12` [Compound A]: the Kd at human LXRα is about 0.015 µM.
As for `CCCc1c(OCCCN(C)C(=O)Nc2ccccn2)ccc2c(C(F)(F)F)noc12` [Compound (18), N′-(2-pyridyl)-N-methyl-N-(3-{[7-propyl-3-(trifluoromethyl)-1,2-benzisoxazol-6-yl]oxy}propyl)urea], the “% cholesterol efflux” value came out at 3.4% in the test with Caco-2 cells (compound 30 nM); 3.5% with Caco-2 cells (compound 100 nM); 4.9% with Caco-2 cells (compound 300 nM); 5.7% in the test with Caco-2 cells (compound 1000 nM); 6.8% in the test on Caco-2 cells (compound 3000 nM); 5.6% in the test on Caco-2 cells (compound 10000 nM).
